From patent publication US5681829A, “Class of phosphocholine derivatives having antifungal activity” (Shaman Pharmaceuticals, Inc., priority 1995, dated 1997)
Values after ≈ are worked out from the molar mass of the structure shown. Like-named read-outs stand apart in the source and are kept apart here.

What was measured:
Type in all cases: cell-based
fungi = test: antifungal activity stated in words
C. albicans = test: antifungal screening test of analogs, C. albicans (CA); conditions: for IC (25-75%): read-out: Partial inhibition
Protocol: (§1) The analog compounds were tested for their activity against C. albicans, C. neoformans, A. fumigatus and T. rubrum. Partial inhibition of the fungus of between 25 to 75% was measured along with the total inhibition (MIC) by these anolog compounds. A description of the partial inhibition measurement can be found in R. L. Stiller, et al The Journal of Infectious Diseases, 147, No. 6 (1983). The structure of these analog compounds is as follows. [drawing 15] wherein R is the group identified in table 2.

C. neoformans = test: antifungal screening test of analogs, C. neoformans (CN); conditions: for IC (25-75%): read-out: Partial inhibition
Protocol: as §1

A. fumigatus = test: antifungal screening test of analogs, A. fumigatus (AF); conditions: for IC (25-75%): read-out: Partial inhibition
Protocol: as §1

T. rubrum = test: antifungal screening test of analogs, T. rubrum (TR); conditions: for IC (25-75%): read-out: Partial inhibition
Protocol: as §1

Row | Molecule | MIC (C. albicans; Candida albicans) [µg/mL] | MIC (C. neoformans; Cryptococcus neoformans) [µg/mL] | IC (25-75%) (C. neoformans; Cryptococcus neoformans) [µg/mL] | MIC (A. fumigatus; Aspergillus fumigatus) [µg/mL] | IC (25-75%) (A. fumigatus; Aspergillus fumigatus) [µg/mL] | MIC (T. rubrum; Trichophyton rubrum) [µg/mL] | IC (25-75%) (T. rubrum; Trichophyton rubrum) [µg/mL] | also measured
1 | C[N+](C)(C)CCOP(=O)([O-])OCCCCCCCCCCCCCCCCCCCCCCOP(=O)([O-])OCC[N+](C)(C)C [1,22-docosandiol bisphosphocholine ester] |  |  |  |  |  |  |  | antifungal activity (fungi): one of the most active antifungal compounds
2 | CCCCCCCCCCCCCCCC(=O)O[C@H](COC1O[C@H](CO)[C@@H](O)[C@H](O)[C@H]1O)COP(=O)([O-])OCC[N+](C)(C)C (some centres unmarked) [2-palmitoyl-1-O-glucopyranosyllysolecithin] |  |  |  |  |  |  |  | antifungal activity (fungi): relatively active antifungal agent similar in activity to L-a-Lysophosphatidyl inositol
3 | CCCCCCCCCC(=O)OC[C@@H](O)COP(=O)([O-])OCC[N+](C)(C)C [L-a-Lysophosphatidylcholine Decanoyl (C:10)] | > 500 | 500 (≈ 1220 µM) | 250 | > 500 | > 500 | > 500 | > 500 | IC (25-75%) (C. albicans; Candida albicans): 250 µg/mL
4 | CCCCCCCCCCCCCCCCC(=O)OC[C@@H](O)COP(=O)([O-])OCC[N+](C)(C)C [L-a-Lysophosphatidylcholine Heptadecanoyl (C17:0)] |  |  |  |  |  |  |  | IC (25-75%) (C. albicans; Candida albicans, CA, partial inhibition of between 25 to 75%): 16 µg/mL; MIC (C. albicans; Candida albicans, CA, total inhibition, read-out: MIC): 63 µg/mL (≈ 124 µM); MIC (C. neoformans; Cryptococcus neoformans, CN, total inhibition, read-out: MIC): 16 µg/mL (≈ 31.4 µM); IC (25-75%) (A. fumigatus; Aspergillus fumigatus, AF, partial inhibition of between 25 to 75%): 31 µg/mL; MIC (A. fumigatus; Aspergillus fumigatus, AF, total inhibition, read-out: MIC): > 1000 µg/mL; IC (25-75%) (T. rubrum; Trichophyton rubrum, TR, partial inhibition of between 25 to 75%): 31 µg/mL; MIC (T. rubrum; Trichophyton rubrum, TR, total inhibition, read-out: MIC): 63 µg/mL (≈ 124 µM)
5 | CCCCCCCCCCCC(=O)OC[C@@H](O)COP(=O)([O-])OCC[N+](C)(C)C [L-a-Lysophosphatidylcholine Lauroyl (C12:0)] | 500 (≈ 1140 µM) | 125 (≈ 284 µM) | 31 | 125 (≈ 284 µM) |  | 250 (≈ 569 µM) | 63 | 
6 | CCCCCCCCCCCCCC(=O)OC[C@@H](O)COP(=O)([O-])OCC[N+](C)(C)C [L-a-Lysophosphatidylcholine Myristoyl (C14:0)] | 31 (≈ 66.3 µM) | 31 (≈ 66.3 µM) |  | 125 (≈ 267 µM) | 31 | 31 (≈ 66.3 µM) |  | 
7 | CCCCCCCC/C=C\CCCCCCCC(=O)OC[C@@H](O)COP(=O)([O-])OCC[N+](C)(C)C [L-a-Lysophosphatidylcholine Oleoyl (C18:1,[Cis]-9)] | 31 (≈ 59.4 µM) | 31 (≈ 59.4 µM) |  | 63 (≈ 121 µM) | 31 | 31 (≈ 59.4 µM) |  | 
8 | CCCCCCCCCCCCCCCC(=O)OC[C@@H](O)COP(=O)([O-])OCC[N+](C)(C)C [L-a-Lysophosphatidylcholine Palmitoyl (C16:0)] | 31 (≈ 62.5 µM) | 31 (≈ 62.5 µM) |  | 63 (≈ 127 µM) | 31 | 500 (≈ 1010 µM) | 63 | 
9 | CCCCCCCCCCCCCCCCCC(=O)OC[C@@H](O)COP(=O)([O-])OCC[N+](C)(C)C [L-a-Lysophosphatidylcholine Stearoyl (C18:0)] | > 250 | > 250 | 31 | > 250 | > 250 | > 250 | > 250 | IC (25-75%) (C. albicans; Candida albicans): > 250 µg/mL
10 | CCCCCCCC/C=C\CCCCCCCC(=O)OC[C@@H](O)COP(=O)(O)OCCN [L-a-Lysophosphatidylethanol Amine, Oleoyl (C18:1,[cis]-9)] | > 100 | > 100 | 100 | > 100 | > 100 | > 100 | > 100 | IC (25-75%) (C. albicans; Candida albicans): > 100 µg/mL
11 | L-a-Lysophosphatidyl inositol |  |  |  |  |  |  |  | Partial inhibition (C. albicans; CA, partial inhibition of between 25 to 75%): > 100 µg/mL; MIC (C. albicans; CA, total inhibition): > 100 µg/mL; Partial inhibition (C. neoformans; CN, partial inhibition of between 25 to 75%): 100 µg/mL; MIC (C. neoformans; CN, total inhibition): > 100 µg/mL; MIC (A. fumigatus; AF, total inhibition): 100 µg/mL; Partial inhibition (T. rubrum; TR, partial inhibition of between 25 to 75%): > 100 µg/mL; MIC (T. rubrum; TR, total inhibition): > 100 µg/mL
